Measurements as given in PubChem BioAssay AID256 (DTP/NCI, 2004).
Toxic doses and inconclusive results are not listed.

Tested on: CD2F1 mice, L1210 leukemia ip, survival T/C
Assay: NCI In Vivo Anticancer Drug Screen. Data for tumor model L1210 Leukemia (intraperitoneal) in CD2F1 (CDF1) mice
Conditions: higher = longer survival
How it was run: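 Activity against a transplanted murine tumor was judged by comparing the compound group with a vehicle group. The outcome in the treated animals was divided by that in the controls.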

[1] = endpoint: mean survival time, dose: 100.0 mg/kg/injection, schedule: Q01DX001 (ip), vehicle: saline with Tween-80
[2] = endpoint: mean survival time, dose: 200.0 mg/kg/injection, schedule: Q01DX001 (ip), vehicle: saline with Tween-80
[3] = endpoint: mean survival time, dose: 400.0 mg/kg/injection, schedule: Q01DX001 (ip), vehicle: saline with Tween-80
[4] = endpoint: mean survival time, dose: 100.0 mg/kg/injection, schedule: Q04DX002 (ip), vehicle: saline with Tween-80
[5] = endpoint: mean survival time, dose: 200.0 mg/kg/injection, schedule: Q04DX002 (ip), vehicle: saline with Tween-80
[6] = endpoint: mean survival time, dose: 400.0 mg/kg/injection, schedule: Q04DX002 (ip), vehicle: saline with Tween-80
[7] = endpoint: mean survival time, dose: 100.0 mg/kg/injection, schedule: Q04DX003 (ip), vehicle: saline with Tween-80
[8] = endpoint: mean survival time, dose: 200.0 mg/kg/injection, schedule: Q04DX003 (ip), vehicle: saline with Tween-80
[9] = endpoint: mean survival time, dose: 400.0 mg/kg/injection, schedule: Q04DX003 (ip), vehicle: saline with Tween-80

Q: Which results are given for `C[CH2][Sn]([CH2]C)([O]S(C)(=O)=O)[O]S(C)(=O)=O`?
A: T/C (endpoint: mean survival time, dose: 0.78 mg/kg/injection, schedule: Q01DX009 (ip), vehicle: saline): 101 % of control; T/C (endpoint: mean survival time, dose: 1.56 mg/kg/injection, schedule: Q01DX009 (ip), vehicle: saline): 107 % of control; T/C (endpoint: mean survival time, dose: 3.12 mg/kg/injection, schedule: Q01DX009 (ip), vehicle: saline): 107 % of control; T/C (endpoint: mean survival time, dose: 6.25 mg/kg/injection, schedule: Q01DX009 (ip), vehicle: saline): 111 % of control; T/C (endpoint: mean survival time, dose: 12.5 mg/kg/injection, schedule: Q01DX009 (ip), vehicle: saline): 114 % of control

Q: What does the source list for `Fc1c(F)c(F)c(Oc2c(F)c(F)c(Cl)c(F)c2F)c(F)c1F`?
A: T/C [1]: 91 % of control; T/C [2]: 91 % of control; T/C [3]: 88 % of control

Q: What does the source list for `CNNCc1ccc(C(=O)NC(N)=O)cc1`?
A: T/C (endpoint: mean survival time, dose: 8.0 mg/kg/injection, schedule: Q03HX024 (ip), vehicle: saline): 124 % of control; T/C (endpoint: mean survival time, dose: 16.0 mg/kg/injection, schedule: Q01DX005 (iv), vehicle: saline): 123 % of control; T/C (endpoint: mean survival time, dose: 16.0 mg/kg/injection, schedule: Q03HX008 (ip), vehicle: saline): 112 % of control; T/C (endpoint: mean survival time, dose: 16.0 mg/kg/injection, schedule: Q03HX016 (ip), vehicle: saline): 110 % of control; T/C (endpoint: mean survival time, dose: 16.0 mg/kg/injection, schedule: Q03HX024 (ip), vehicle: saline): 124 % of control; T/C (endpoint: mean survival time, dose: 32.0 mg/kg/injection, schedule: Q01DX005 (iv), vehicle: saline): 119 % of control; T/C (endpoint: mean survival time, dose: 32.0 mg/kg/injection, schedule: Q01DX008 (ip), vehicle: saline): 119 % of control; T/C (endpoint: mean survival time, dose: 32.0 mg/kg/injection, schedule: Q03HX008 (ip), vehicle: saline): 115 % of control; T/C (endpoint: mean survival time, dose: 32.0 mg/kg/injection, schedule: Q03HX016 (ip), vehicle: saline): 120 % of control; T/C (endpoint: mean survival time, dose: 64.0 mg/kg/injection, schedule: Q01DX005 (iv), vehicle: saline): 112 % of control; T/C (endpoint: mean survival time, dose: 64.0 mg/kg/injection, schedule: Q03HX008 (ip), vehicle: saline): 117 % of control; T/C (endpoint: mean survival time, dose: 64.0 mg/kg/injection, schedule: Q04DX003 (ip), vehicle: saline): 121 % of control; T/C (endpoint: mean survival time, dose: 128.0 mg/kg/injection, schedule: Q01DX001 (ip), vehicle: saline): 107 % of control; T/C (endpoint: mean survival time, dose: 128.0 mg/kg/injection, schedule: Q01DX001 (iv), vehicle: saline): 103 % of control; T/C (endpoint: mean survival time, dose: 128.0 mg/kg/injection, schedule: Q01DX001 (oral), vehicle: saline): 114 % of control; T/C (endpoint: mean survival time, dose: 128.0 mg/kg/injection, schedule: Q01DX005 (iv), vehicle: saline): 122 % of control; T/C (endpoint: mean survival time, dose: 128.0 mg/kg/injection, schedule: Q01DX009 (oral), vehicle: saline): 164 % of control; T/C (endpoint: mean survival time, dose: 128.0 mg/kg/injection, schedule: Q04DX003 (ip), vehicle: saline): 118 % of control; T/C (endpoint: mean survival time, dose: 128.0 mg/kg/injection, schedule: Q08DX002 (ip), vehicle: saline): 116 % of control; T/C (endpoint: mean survival time, dose: 222.0 mg/kg/injection, schedule: Q01DX Z (ip), vehicle: saline): 162 % of control; T/C (endpoint: mean survival time, dose: 256.0 mg/kg/injection, schedule: Q01DX001 (ip), vehicle: saline): 120 % of control; T/C (endpoint: mean survival time, dose: 256.0 mg/kg/injection, schedule: Q01DX001 (iv), vehicle: saline): 106 % of control; T/C (endpoint: mean survival time, dose: 256.0 mg/kg/injection, schedule: Q01DX001 (oral), vehicle: saline): 117 % of control; T/C (endpoint: mean survival time, dose: 256.0 mg/kg/injection, schedule: Q01DX009 (oral), vehicle: saline): 169 % of control; T/C (endpoint: mean survival time, dose: 256.0 mg/kg/injection, schedule: Q04DX003 (ip), vehicle: saline): 121 % of control; T/C (endpoint: mean survival time, dose: 256.0 mg/kg/injection, schedule: Q08DX002 (ip), vehicle: saline): 123 % of control; T/C (endpoint: mean survival time, dose: 333.0 mg/kg/injection, schedule: Q01DX Z (ip), vehicle: saline): 120 % of control; T/C (endpoint: mean survival time, dose: 512.0 mg/kg/injection, schedule: Q01DX001 (ip), vehicle: saline): 124 % of control; T/C (endpoint: mean survival time, dose: 512.0 mg/kg/injection, schedule: Q01DX001 (iv), vehicle: saline): 114 % of control; T/C (endpoint: mean survival time, dose: 512.0 mg/kg/injection, schedule: Q08DX002 (ip), vehicle: saline): 118 % of control

Q: For `O=C(C[n+]1cc(Br)cc2ccccc21)c1ccc(O)c(O)c1`, which T/C (endpoint: mean survival time, dose: 100.0 mg/kg/injection, schedule: Q01DX009 (ip), vehicle: saline) is on record?
A: The T/C was 110 % of control.

Q: And the T/C (endpoint: mean survival time, dose: 200.0 mg/kg/injection, schedule: Q01DX009 (ip), vehicle: saline)?
A: The T/C was 111 % of control.

Q: What about the T/C (endpoint: mean survival time, dose: 400.0 mg/kg/injection, schedule: Q01DX009 (ip), vehicle: saline) of the same compound?
A: The T/C was 102 % of control.

Q: For `CCCCCOP(N)(=O)OCCCCC`, which T/C [4] is on record?
A: Its T/C is 88 % of control.

Q: What about the T/C [5] of the same compound?
A: Its T/C is 92 % of control.

Q: And the T/C [6]?
A: Its T/C is 100 % of control.

Q: What does the source list for `NC1CCC(=O)NC1c1ccccc1` (centres undefined)?
A: T/C (endpoint: mean survival time, dose: 100.0 mg/kg/injection, schedule: Q04DX002 (ip), vehicle: saline): 97 % of control; T/C (endpoint: mean survival time, dose: 200.0 mg/kg/injection, schedule: Q04DX002 (ip), vehicle: saline): 101 % of control; T/C (endpoint: mean survival time, dose: 400.0 mg/kg/injection, schedule: Q04DX002 (ip), vehicle: saline): 101 % of control

Q: How did the T/C (endpoint: mean survival time, dose: 75.0 mg/kg/injection, schedule: Q01DX001 (ip), vehicle: saline) turn out when `Nc1ccccc1-c1nc2ccncc2[nH]1` was run?
A: Its T/C is 100 % of control.

Q: And the T/C (endpoint: mean survival time, dose: 150.0 mg/kg/injection, schedule: Q01DX001 (ip), vehicle: saline)?
A: The T/C was 98 % of control.

Q: With `CC1OC(n2cc(Cl)c(=O)[nH]c2=O)C2OC(C)(C)OC2C1=O` (centres undefined) as the compound, how does the T/C (endpoint: median survival time, dose: 25.0 mg/kg/injection, schedule: Q01DX005 (ip), vehicle: Klucel (hydroxypropylcellulose) (HPC)) read?
A: The T/C was 102 % of control.

Q: And the T/C (endpoint: median survival time, dose: 50.0 mg/kg/injection, schedule: Q01DX005 (ip), vehicle: Klucel (hydroxypropylcellulose) (HPC))?
A: Its T/C is 100 % of control.

Q: And the T/C (endpoint: median survival time, dose: 100.0 mg/kg/injection, schedule: Q01DX005 (ip), vehicle: Klucel (hydroxypropylcellulose) (HPC))?
A: The T/C was 102 % of control.

Q: And the T/C (endpoint: median survival time, dose: 200.0 mg/kg/injection, schedule: Q01DX005 (ip), vehicle: Klucel (hydroxypropylcellulose) (HPC))?
A: Its T/C is 107 % of control.

Q: Which results are given for `Nc1ccc(NC(=O)COc2cccc(Cl)c2)cc1`?
A: T/C [1]: 90 % of control; T/C [2]: 90 % of control; T/C [3]: 95 % of control

Q: What does the source list for `O=C1NC(=O)c2ccccc21`?
A: T/C (endpoint: mean survival time, dose: 100.0 mg/kg/injection, schedule: Q01DX009 (ip), vehicle: Klucel (hydroxypropylcellulose) (HPC)): 102 % of control; T/C (endpoint: mean survival time, dose: 200.0 mg/kg/injection, schedule: Q01DX009 (ip), vehicle: Klucel (hydroxypropylcellulose) (HPC)): 106 % of control; T/C (endpoint: mean survival time, dose: 400.0 mg/kg/injection, schedule: Q01DX009 (ip), vehicle: Klucel (hydroxypropylcellulose) (HPC)): 101 % of control

Q: Which T/C (endpoint: mean survival time, dose: 12.5 mg/kg/injection, schedule: Q04DX003 (ip), vehicle: saline) does the source give for `CCOP(=O)(N=S=O)OCC` here?
A: The T/C was 100 % of control.

Q: And the T/C (endpoint: mean survival time, dose: 25.0 mg/kg/injection, schedule: Q04DX003 (ip), vehicle: saline)?
A: The T/C was 103 % of control.

Q: What about the T/C (endpoint: mean survival time, dose: 50.0 mg/kg/injection, schedule: Q04DX003 (ip), vehicle: saline) of the same compound?
A: Its T/C is 113 % of control.

Q: For `CC(C)C1=CC2=C(CC1)C1(C)CCCC(C)(C(=O)O)C1CC2` (centres undefined), which T/C (endpoint: mean survival time, dose: 100.0 mg/kg/injection, schedule: Q01DX009 (ip), vehicle: saline with Tween-80) is on record?
A: The T/C was 98 % of control.

Q: What about the T/C [7] of the same compound?
A: The T/C was 104 % of control.

Q: What about the T/C (endpoint: mean survival time, dose: 200.0 mg/kg/injection, schedule: Q01DX009 (ip), vehicle: saline with Tween-80) of the same compound?
A: The T/C was 96 % of control.

Q: And the T/C [8]?
A: The T/C was 98 % of control.

Q: And the T/C (endpoint: mean survival time, dose: 400.0 mg/kg/injection, schedule: Q01DX009 (ip), vehicle: saline with Tween-80)?
A: The T/C was 89 % of control.

Q: What about the T/C [9] of the same compound?
A: The T/C was 93 % of control.

Q: What does the source list for `CCN(CC)C(=O)SCCSC(=O)N(CC)CC`?
A: T/C (endpoint: mean survival time, dose: 25.0 mg/kg/injection, schedule: Q04DX002 (ip), vehicle: saline with Tween-80): 96 % of control; T/C (endpoint: mean survival time, dose: 50.0 mg/kg/injection, schedule: Q04DX002 (ip), vehicle: saline with Tween-80): 104 % of control; T/C [4]: 101 % of control; T/C [5]: 91 % of control; T/C [6]: 95 % of control

Q: How did the T/C [1] turn out when `CCOC1OC(C(COC(C)=O)OC(C)=O)C(OC(C)=O)C(OC(C)=O)C1OC(C)=O` (centres undefined) was run?
A: Its T/C is 104 % of control.

Q: And the T/C [2]?
A: The T/C was 96 % of control.

Q: And the T/C [3]?
A: Its T/C is 101 % of control.

Q: What does the source list for `COc1ccccc1C(=O)C(=O)c1ccccc1OC`?
A: T/C [7]: 100 % of control; T/C [8]: 96 % of control; T/C [9]: 100 % of control

Q: For `COc1ccc(CC(=O)NC(C)Cc2ccc(OC)c(OC)c2)cc1OC` (centres undefined), which T/C (endpoint: mean survival time, dose: 12.5 mg/kg/injection, schedule: Q01DX009 (ip), vehicle: water) is on record?
A: Its T/C is 91 % of control.

Q: And the T/C (endpoint: mean survival time, dose: 25.0 mg/kg/injection, schedule: Q01DX009 (ip), vehicle: water)?
A: Its T/C is 89 % of control.

Q: And the T/C (endpoint: mean survival time, dose: 50.0 mg/kg/injection, schedule: Q01DX009 (ip), vehicle: water)?
A: Its T/C is 95 % of control.

Q: What about the T/C (endpoint: mean survival time, dose: 100.0 mg/kg/injection, schedule: Q01DX009 (ip), vehicle: water) of the same compound?
A: Its T/C is 94 % of control.

Q: And the T/C (endpoint: mean survival time, dose: 200.0 mg/kg/injection, schedule: Q01DX009 (ip), vehicle: water)?
A: The T/C was 91 % of control.
